Measured values published in ChEMBL document CHEMBL3784965, “Discovery of (R)-6-(1-(8-Fluoro-6-(1-methyl-1H-pyrazol-4-yl)-[1,2,4]triazolo[4,3-a]pyridin-3-yl)ethyl)-3-(2-methoxyethoxy)-1,6-naphthyridin-5(6H)-one (AMG 337), a Potent and Selective Inhibitor of MET with High Unbound Target Coverage and Robust In Vivo Antitumor Activity” (J Med Chem, 2016).
≈ marks a conversion by molar mass, not a printed value.

Experiments:
[1] = Clearance in Sprague-Dawley rat at 0.25 mg/kg, iv; type: ADME, organism-based; settings: in vivo
[2] = Fraction unbound in human plasma at 5 ug/ml by equilibrium dialysis method; type: ADME, cell-free
Mus musculus [3] = assay: In vivo inhibition of HGF-induced phosphorylation of MET in Balb/c mouse liver assessed as phosphorylated cMET level at 10 mg/kg administered via oral gavage followed by HGF injection 3 hrs post dose by electrochemiluminescence immunoassay relative to control; type: functional; parameters: scale not given: the % may be the effect or the level left
[4] = Oral bioavailability in Sprague-Dawley rat at 2 mg/kg; type: ADME, organism-based; settings: in vivo
[5] = Fraction unbound in mouse plasma at 5 ug/ml by equilibrium dialysis method; type: ADME, cell-free
[6] = Volume of distribution at steady state in Sprague-Dawley rat; type: ADME, organism-based; settings: in vivo, read-out: Vdss
[7] = Half life in Sprague-Dawley rat; type: ADME, organism-based; settings: in vivo
[8] = Intrinsic clearance in human liver microsomes; type: ADME; settings: read-out: CLH
Mus musculus [9] = assay: In vivo inhibition of HGF-induced phosphorylation of MET in Balb/c mouse liver assessed as phosphorylated cMET level at 10 mg/kg administered via oral gavage followed by HGF injection 24 hrs post dose by electrochemiluminescence immunoassay relative to control; type: functional; parameters: scale not given: the % may be the effect or the level left
Mus musculus [10] = assay: In vivo inhibition of HGF-induced phosphorylation of MET in Balb/c mouse liver assessed as phosphorylated cMET level at 10 mg/kg administered via oral gavage followed by HGF injection 6 hrs post dose by electrochemiluminescence immunoassay relative to control; type: functional; parameters: scale not given: the % may be the effect or the level left
Rattus norvegicus = organism: Rattus norvegicus; assay: Unbound clearance in Sprague-Dawley rat at 5 ug/ml by equilibrium dialysis method; type: ADME, organism-based; settings: in vivo
[11] = Intrinsic clearance in mouse liver microsomes; type: ADME; settings: read-out: CLH
Mus musculus [12] = assay: In vivo inhibition of HGF-induced phosphorylation of MET in Balb/c mouse liver assessed as phosphorylated cMET level at 10 mg/kg administered via oral gavage followed by HGF injection 9 hrs post dose by electrochemiluminescence immunoassay relative to control; type: functional; parameters: scale not given: the % may be the effect or the level left
[13] = Fraction unbound in Sprague-Dawley rat plasma at 5 ug/ml by equilibrium dialysis method; type: ADME, cell-free
[14] = Intrinsic clearance in rat liver microsomes; type: ADME; settings: read-out: CLH
Mus musculus [15] = assay: In vivo inhibition of HGF-induced phosphorylation of MET in Balb/c mouse liver assessed as phosphorylated cMET level at 10 mg/kg administered via oral gavage followed by HGF injection 12 hrs post dose by electrochemiluminescence immunoassay relative to control; type: functional; parameters: scale not given: the % may be the effect or the level left
Mus musculus [16] = assay: In vivo inhibition of HGF-induced phosphorylation of MET in Balb/c mouse liver assessed as phosphorylated cMET level at 10 mg/kg administered via oral gavage followed by HGF injection 1 hr post dose by electrochemiluminescence immunoassay relative to control; type: functional; parameters: scale not given: the % may be the effect or the level left
[17] = Oral bioavailability in Beagle dog at 30 mg/kg; type: ADME, organism-based, Canis lupus familiaris; settings: in vivo
[18] = AUC(0 to infinity) in Beagle dog at 30 mg/kg, po; type: ADME, organism-based, Canis lupus familiaris; parameters: dose 30 mg/kg, time infinity, route oral; settings: in vivo
[19] = Volume of distribution at steady state in iv dosed Beagle dog; type: ADME, organism-based, Canis lupus familiaris; settings: in vivo, read-out: Vdss
[20] = AUC(0 to infinity) in Beagle dog at 10 mg/kg,po; type: ADME, organism-based, Canis lupus familiaris; parameters: dose 10 mg/kg, route oral, time infinity; settings: in vivo
Canis familiaris = organism: Canis familiaris; assay: Unbound clearance in Beagle dog at 5 ug/ml by equilibrium dialysis method; type: ADME, organism-based, Canis lupus familiaris; settings: in vivo
[21] = Half life in iv dosed Beagle dog; type: ADME, organism-based, Canis lupus familiaris; settings: in vivo
[22] = Clearance in Beagle dog at 0.425 mg/kg, iv; type: ADME, organism-based, Canis lupus familiaris; settings: in vivo
[23] = Oral bioavailability in Beagle dog at 10 mg/kg; type: ADME, organism-based, Canis lupus familiaris; settings: in vivo
Mus musculus [24] = assay: In vivo inhibition of HGF-induced phosphorylation of MET in Balb/c mouse liver assessed as time required for >90% inhibition at 10 mg/kg administered via oral gavage; type: functional
Cytochrome P450 3A4 [25] = molecular target: T1, Cytochrome P450 3A4 (Homo sapiens, UniProt P08684); assay: Inhibition of CYP3A4 (unknown origin) in absence of NADPH; type: ADME
Plasma [26] = assay: Unbound plasma concentration in Balb/c mouse at 10 mg/kg, administered via oral gavage measured at 12 hrs; type: ADME, organism-based; settings: in vivo
Cytochrome P450 3A4 [27] = molecular target: T1, Cytochrome P450 3A4; assay: (§1) Inhibition of CYP3A4 (unknown origin) in presence of NADPH; type: ADME
[28] = Solubility of compound in PBS; type: physicochemical
[29] = Solubility of compound in SIF; type: physicochemical
[30] = Solubility of compound in 0.01 N HCl; type: physicochemical
[31] = molecular target: Hepatocyte growth factor receptor (Homo sapiens, UniProt P08581)
Description: Inhibition of HGF-mediated MET autophosphorylation in human PC3 cells preincubated for 1 hr followed by stimulation with human HGF measured after 10 mins by electrochemiluminescence immunoassay

Mus musculus [32] = assay: In vivo inhibition of HGF-induced phosphorylation of MET in Balb/c mouse liver assessed as time required for >90% inhibition at 30 mg/kg administered via oral gavage; type: functional
Plasma [33] = assay: Unbound plasma concentration in Balb/c mouse at 30 mg/kg, administered via oral gavage measured at 6 hrs; type: ADME, organism-based; settings: in vivo
[34] = Clearance in Sprague-Dawley rat at 0.3 mg/kg, iv; type: ADME, organism-based; settings: in vivo
Plasma [35] = assay: Unbound plasma concentration in Balb/c mouse at 10 mg/kg, administered via oral gavage measured at 6 hrs; type: ADME, organism-based; settings: in vivo
CYP3A4 = CYP3A4 (Homo sapiens, UniProt P08684); assay: as §1; type: ADME

Compound	clearance [1] [mL/min/kg]	fraction unbound at 5 ug/ml [2]	bioavailability [4] [%]	fraction unbound at 5 ug/ml [5]	Vd [6] [L/kg]	half-life [7] [h]	microsomal CLint [8] [µL/min/mg]	CL free (Rattus norvegicus) [mL/min/kg]	microsomal CLint [11] [µL/min/mg]	fraction unbound at 5 ug/ml [13]	microsomal CLint [14] [µL/min/mg]	solubility [28] [µg/mL]	also measured
COCCOc1cnc2ccn([C@H](C)c3nnc4c(F)cc(-c5cc(C)no5)cn34)c(=O)c2c1	3.33	0.409	54	0.317	0.7	2.9	20	40	14	0.08	16	–	Activity (Mus musculus [3]): 100%; Activity (Mus musculus [9]): 28%; Activity (Mus musculus [10]): 99%; Activity (Mus musculus [12]): 99%; Activity (Mus musculus [15]): 51%; Activity (Mus musculus [16]): 101%
COCCOc1cnc2ccn([C@H](C)c3nnc4ccc(-c5cc(C)no5)cn34)c(=O)c2c1	4.83	0.338	59	0.435	1	2.4	7	25	23	0.19	9	–	Activity (Mus musculus [3]): 109%; bioavailability [17]: 87%; AUC(0-inf) [18]: 94100 ng·h/mL; Vd [19]: 1.4 L/kg; AUC(0-inf) [20]: 19300 ng·h/mL; Activity (Mus musculus [9]): 50%; CL free (Canis familiaris): 11.3 mL/min/kg; Activity (Mus musculus [10]): 108%; half-life [21]: 4.3 h; clearance [22]: 5 mL/min/kg; Activity (Mus musculus [12]): 108%; bioavailability [23]: 53%; Activity (Mus musculus [15]): 95%; Activity (Mus musculus [16]): 109%
COCCOc1cnc2ccc([C@H](C)n3nnc4ccn(-c5cc(C)ns5)c(=O)c43)cc2c1	–	–	–	–	–	3.4	–	517	–	–	–	9 (≈ 19.5 µM)	Time (Mus musculus [24]): 12 h; IC50 (Cytochrome P450 3A4 [25]): 21 µM; Cp(f) (Plasma [26]): 20 nM; IC50 (Cytochrome P450 3A4 [27]): 21 µM
COCCOc1cnc2ccn([C@H](C)c3nnc4ccc(-c5cnn(C)c5)cn34)c(=O)c2c1	11.7	0.498	25	0.424	1.3	1.8	8	40	7	0.296	< 5	–	–
COc1ccc2c(OCc3nnc4ccc(-c5cc(F)c(F)c(F)c5)nn34)ccnc2c1	–	–	–	–	–	3.5	–	967	–	–	–	4 (≈ 9.15 µM)	solubility [29]: 17 µg/mL (≈ 38.9 µM); solubility [30]: 85 µg/mL (≈ 194 µM); IC50 [31]: 0.008 µM; Time (Mus musculus [32]): 6 h; Cp(f) (Plasma [33]): 34 nM; clearance [34]: 1 mL/min/kg
COCCOc1cnc2ccc([C@H](C)c3nnc4c(F)cc(-c5cc(C)no5)cn34)cc2c1	–	–	–	–	–	4.2	–	433	–	–	–	52 (≈ 116 µM)	Time (Mus musculus [24]): 6 h; solubility [29]: 126 µg/mL (≈ 282 µM); IC50 (Cytochrome P450 3A4 [25]): > 50 µM; IC50 (Cytochrome P450 3A4 [27]): > 50 µM; solubility [30]: > 200 µg/mL; Cp(f) (Plasma [35]): 141 nM
COc1cnc2ccn([C@H](C)c3nnc4c(F)cc(-c5cc(C)no5)cn34)c(=O)c2c1	7.67	–	31	–	0.5	1.1	–	–	–	–	–	–	–
COc1cnc2ccn([C@H](C)c3nnc4c(F)cc(-c5cnn(C)c5)cn34)c(=O)c2c1	2	0.309	43	0.353	0.5	3.6	< 5	15	7	0.139	12	–	–
COc1cnc2c(NCc3nnc4ccc(-c5cc(C)ns5)nn34)ccnc2c1	3.17	–	–	–	–	1.8	–	433	–	–	–	3 (≈ 7.42 µM)	solubility [29]: 13 µg/mL (≈ 32.1 µM); IC50 (CYP3A4): > 50 µM; solubility [30]: > 200 µg/mL; Time (Mus musculus [32]): 6 h; Cp(f) (Plasma [33]): 9 nM
C[C@H](c1nnc2c(F)cc(-c3cnn(C)c3)cn12)n1ccc2ncccc2c1=O	4.67	0.478	31	0.376	0.7	4	< 5	17	< 5	0.271	8	–	–
COc1cnc2ccn([C@H](C)c3nnc4ccc(-c5cnn(C)c5)cn34)c(=O)c2c1	10.8	0.286	36	0.409	1.2	1.7	< 5	53.3	7	0.206	9	–	–
